The text below walks through data of patent US12150927B2, “Use of cannabidiolic acid in the treatment of autism spectrum disorder and associated disorders” (GW Research Limited, priority 2016, dated 2024).

Structures are written as SMILES.

Assay [1] deals with Ube3am-/p+ (AS) mice. Nature of the assay: Clasping test, mouse model of Angelman syndrome. The assay is classed as in vivo. Conditions: chronic treatment (30 days) CBDA 20 mg/kg i.p., 10 weeks of age, vs AS vehicle, FIG. 12. The protocol: (§1) Heterozygous mice with maternal deficiency of Ube3A (Ube3am−/p+) and wild type (Ube3am+/p+) were purchased from The Jackson Laboratory (Jackson code: B6.129S7-Ube3a tm1Alb/J) and maintained in a C57BL/6 background.
Drugs were dissolved in 1:1:18 ethanol:cremophor:0.9% saline, for intraperitoneal (i.p.) administration. […] CBDA was administered at 20 mg/kg.
Clasping: The clasping test assesses ataxia in mice. Mice were suspended by the base of the tail and their behaviours were recorded for 30 seconds. The time for which the mice clasped their hind limbs was recorded. The time was then scored as follows: 4, 15-30 s, 3, 10-15 s, 2, 5-10 s, 1, 0-5 s and 0, 0 s

In assay [2] the test system is Ube3am-/p+ (AS) mice. The experiment in a line: Novel object recognition, mouse model of Angelman syndrome. Format: in vivo. Conditions: CBDA 20 mg/kg i.p., age 7-8 weeks, vs AS vehicle. The protocol: as §1
(§2) Drugs were dissolved in 1:1:18 ethanol:cremophor:0.9% saline, for intraperitoneal (i.p.) administration. Drug treatment was performed daily for 35 days. CBDA was administered at 20 mg/kg.
Novel Object Recognition: The novel object recognition assesses recognition memory in mice. The experiment started with the habituation period, during which mice were allowed to freely explore for 1 hour the apparatus which consists of a rectangular open box (40×30×30 cm width×length×height) made of grey polyvinyl chloride (PVC) illuminated by a dim light. The day after each mouse was allowed to explore two identical objects positioned in the back left and right corners for 5 min (acquisition). A video camera recorded the time spent on exploration of each object. […] The behaviour of mice was analyzed by an observer blind to the treatment. Data are expressed as percentage of recognition index (RI %), which was calculated as the percentage of the time spent exploring the novel object/time spent exploring the novel object+time spent exploring the familiar object×100.

The next assay has as its system VPA-exposed offspring. The experiment in a line: Locomotor activity and repetitive behaviours (self-grooming) in activity cage, rat VPA model. Conditions: CBDA 20 mg/kg/day i.p. PND 34-56. The assay is classed as in vivo, Sprague-Dawley rats. The protocol: (§3) Pregnant Sprague-Dawley rats (Charles River, Calco, Italy), received a single intraperitoneal injection of 500 mg/kg sodium valproate on the 12.5 day after conception, and control females were injected with physiological saline at the same time. Sodium valproate (Sigma Aldrich, Milan, IT) was dissolved in saline at a concentration of 250 mg/ml.
(§4) CBDA was dissolved in ethanol, cremophor and saline (1:1:18). Symptomatic treatment with CBDA at doses of 2 and 20 mg/kg/day i.p. was performed starting from PND 34 (early adolescence) till 56 (early adulthood), both in male and female offspring of dams injected with VPA 500 mg/kg (or vehicle) on day 12.5 after conception. At PND 56, a series of behavioural tests was performed in order to assess the effect of chronic CBDA on sociability, social novelty, short-term memory, locomotion and stereotyped/repetitive behaviours.
Locomotor activity and repetitive behaviours: Locomotor activity was recorded in an activity cage for 20 minutes with the aid of Anymaze program (Ugo Basile, Italy). In this period, repetitive behaviours (self-grooming and digging) were measured by an observer blind to the treatment group.

For assay [3], the system named is Ube3am-/p+ (AS) mice. Nature of the assay: Tail suspension test, mouse model of Angelman syndrome. Particulars: CBDA 20 mg/kg i.p., vs AS vehicle, FIG. 15. Format: in vivo. The protocol:
as §1, §2
Tail suspension: The tail suspension test assesses depressive-like behaviour in mice. Mice were individually suspended by the tail on a horizontal bar (50 cm from floor) using adhesive tape placed approximately 4 cm from the tip of the tail. The duration of immobility was recorded in seconds over a period of 6 minutes by a time recorder. Immobility time was defined as the absence of escape-oriented behaviour.

Assay [4] concerns offspring of VPA-exposed rats. Nature of the assay: Sociability and preference for social novelty, 3-chamber apparatus, rat VPA model. Format: in vivo, Sprague-Dawley rats. The protocol: as §3, §4
Sociability and preference for social novelty: These behaviours were investigated in a 3-chamber apparatus which allows for the measurement of social approach and social preference. In brief, animals were placed into a novel arena (80 cm×31.5 cm) composed of three communicating chambers separated by Perspex walls with central openings allowing access to all chambers for 5 min.
Following this acclimatisation period, animals were briefly confined to the central chamber while an unfamiliar rat confined in a small wire cage was placed in one of the outer chambers. An identical empty wire cage was placed in the other chamber. […] Time spent engaging in investigatory behaviour with the rat was evaluated with the aid of Anymaze program (Ugo Basile, Italy) in order to examine social approach.
To investigate the preference for social novelty, a novel unfamiliar rat was then placed in the empty cage and the test animal was then allowed to explore the arena/chambers for a further 5 min. Time spent engaging in investigatory behaviour with the novel unfamiliar rat was evaluated with the aid of Anymaze program (Ugo Basile, Italy) in order to examine preference for social novelty.

Another assay deals with MeCP2 KO mice. The experiment in a line: Body weight gain, mouse model of Rett syndrome. Particulars: CBDA 2 and 20 mg/kg i.p. daily, PND 28-66, FIG. 5. Format: in vivo. The protocol: CBDA was administered daily at the dose of 2 or 20 mg/kg i.p. starting from PND 28 and the following signs were scored every other day: hindlimb clasping (indication of motor imbalance), tremor, gait (measure of coordination), breathing, mobility and general condition.
The CBDA was dissolved in ethanol, cremophor and saline (1:1:18). Starting from PND 28, mice received a daily intraperitoneal injection of CBDA (or vehicle) at the dose of 2 or 20 mg/kg. Animals were then scored every other day to evaluate the effect of CBDA treatment on motor symptoms (hindlimb clasping, gait, mobility) as well as neurological signs and general conditions (breathing abnormalities, tremors and general condition) present in MeCP2 knockout (KO) mice.

Regarding `C=C(C)[C@@H]1CCC(C)=C[C@H]1c1c(O)cc(CCCCC)c(C(=O)O)c1O` [CBDA, Cannabidiolic acid], the clasping duration entry in the assay with Ube3am-/p+ (AS) mice [1] was “significantly reduced clasping duration”. Moreover, the discrimination index entry in the assay with Ube3am-/p+ (AS) mice [2] is given as “increased the discrimination index”. In addition, the locomotor activity result in the assay with VPA-exposed offspring (VPA offspring, FIG. 2B) was “able to normalize this”. In the assay with VPA-exposed offspring (VPA-exposed offspring, FIG. 2A), the “repetitive behaviours (time spent in compulsive self-grooming)” value is reported as “significantly normalize this behaviour”. Further, the “duration of immobility time” value in the assay on Ube3am-/p+ (AS) mice [3] is listed as “significantly reduced the duration of immobility time”. In addition, the preference index entry in assay [4] (CBDA 20 mg/kg/day i.p. PND 34-56, VPA rats, FIG. 1C) was “significantly counteracted the impairment in sociability”. Moreover, the social novelty preference result in assay [4] (CBDA 20 mg/kg/day i.p. PND 34-56, male VPA rats, FIG. 1A) was “statistically significant effect in males on restoration of social novelty preference”. The sociability result in assay [4] (CBDA at both doses (2 and 20 mg/kg/day i.p.) PND 34-56, VPA rats, FIG. 1B) is “significantly reduced the impairment in sociability”. The body weight gain result in the assay on MeCP2 KO mice is recorded as “did not prevent the reduction in body weight”.
